For orientation: IC50 means the concentration at which inhibition is half-maximal.

The results in this text go back to patent publication US8410117B2, “Imidazopyrimidine derivatives” (Hoffmann-La Roche Inc., priority 2010, dated 2013).

The target in this experiment is T1, human PDE10A (Homo sapiens, UniProt Q9Y233).
T1 construct: The human PDE10A full length assay; purchased Enzo Life Science, Lausen, Switzerland SE-534
T1 sequence (Q9Y233 1-779 isoform Q9Y233-1): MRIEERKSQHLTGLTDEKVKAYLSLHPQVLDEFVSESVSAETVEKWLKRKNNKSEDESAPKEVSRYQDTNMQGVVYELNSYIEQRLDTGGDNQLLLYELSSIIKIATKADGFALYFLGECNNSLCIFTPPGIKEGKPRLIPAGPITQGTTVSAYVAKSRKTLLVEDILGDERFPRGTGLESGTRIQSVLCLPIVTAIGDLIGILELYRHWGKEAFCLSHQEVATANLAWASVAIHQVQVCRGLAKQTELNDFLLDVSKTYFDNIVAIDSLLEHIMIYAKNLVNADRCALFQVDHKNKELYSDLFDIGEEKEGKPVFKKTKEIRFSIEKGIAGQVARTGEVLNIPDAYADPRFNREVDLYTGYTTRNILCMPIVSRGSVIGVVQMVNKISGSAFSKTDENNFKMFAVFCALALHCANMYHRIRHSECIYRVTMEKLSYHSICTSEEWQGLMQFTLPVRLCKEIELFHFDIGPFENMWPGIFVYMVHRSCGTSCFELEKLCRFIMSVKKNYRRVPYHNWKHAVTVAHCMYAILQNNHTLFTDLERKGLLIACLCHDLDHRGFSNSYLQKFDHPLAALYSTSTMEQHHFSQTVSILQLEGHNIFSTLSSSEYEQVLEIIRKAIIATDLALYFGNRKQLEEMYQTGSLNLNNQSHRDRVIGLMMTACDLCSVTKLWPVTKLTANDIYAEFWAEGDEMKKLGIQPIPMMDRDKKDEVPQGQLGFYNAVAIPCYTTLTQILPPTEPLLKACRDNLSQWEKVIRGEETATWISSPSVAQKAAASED
As to the kind of experiment: human PDE10A full length Scintillation Proximity Assay (SPA). The settings on record: 50 nM cGMP and 50 nM [3H]-cGMP, 20 minutes at room temperature; read-out: PDE10A inhibition IC50. It is filed as biochemical. Here is the method: The following test was carried out in order to determine the activity of the compounds of the present invention. PDE10 activity of the compounds of the present invention was determined using a Scintillation Proximity Assay (SPA)-based method similar to the one previously described (Fawcett, L. et al., Proc Natl Acad Sci USA (2000) 97(7):3702-3707).
The human PDE10A full length assay was performed in 96-well micro titer plates. The reaction mixture of 50 μl contained 20 mM HEPES pH=7.5/10 mM MgCl2/0.05 mg/ml BSA (Sigma cat. #A-7906), 50 nM cGMP (Sigma, cat. #G6129) and 50 nM [^3H]-cGMP (GE Healthcare, cat. #TRK392 S.A. 13.2 Ci/mmol), 3.75 ng/well PDE10A enzyme (Enzo Life Science, Lausen, Switzerland cat #SE-534) with or without a specific test compound. A range of concentrations of the potential inhibitor was used to generate data for calculating the concentration of inhibitor resulting in 50% of the effect (e.g. IC50, the concentration of the competitor inhibiting PDE10A activity by 50%). Non-specific activity was tested without the enzyme. The reaction was initiated by the addition of the substrate solution (cGMP and [^3H]-cGMP) and allowed to progress for 20 minutes at room temperature. The reaction was terminated by adding 25 μl of YSi-SPA scintillation beads (GE Healthcare, cat. #RPNQ0150) in 18 mM zinc sulphate solution (stop reagent). After 1 h under shaking, the plate was centrifuged one minute at 170 g to allow beads to settle. Afterwards, radioactive counts were measured on a Perkin Elmer TopCount Scintillation plate reader.
On the technique in general: In a scintillation proximity assay essentially only radioactivity close to the scintillant gives light.
With `COCCN(C)C(=O)c1cnn(C)c1C(=O)Nc1ccn2cc(-c3cccc(OC)c3)nc2n1` [Example 101, 2-Methyl-2H-pyrazole-3,4-dicarboxylic acid 4-[(2-methoxy-ethyl)-methyl-amide]3-{[2-(3-methoxy-phenyl)-imidazo[1,2-a]pyrimidin-7-yl]amide}], the IC50 was determined as 22 nM.

For the compound `CN(CCF)C(=O)c1cnn(C)c1C(=O)Nc1ccn2cc(-c3ccccc3)nc2n1` [Example 95, 2-Methyl-2H-pyrazole-3,4-dicarboxylic acid 4-[(2-fluoro-ethyl)-methyl-amide]3-[(2-phenyl-imidazo[1,2-a]pyrimidin-7-yl)-amide]], the IC50 turned out to be 12.2 nM.

As to `Cc1oc(C2CC2)nc1CNC(=O)c1cnn(C)c1C(=O)Nc1ccn2cc(-c3ccccc3)nc2n1` [Example 165, N4-((2-cyclopropyl-5-methyloxazol-4-yl)methyl)-1-methyl-N5-(2-phenylimidazo[1,2-a]pyrimidin-7-yl)-1H-pyrazole-4,5-dicarboxamide], the IC50 worked out at 776 nM.

`CN(CCOCCF)C(=O)c1cnn(C)c1C(=O)Nc1ccn2cc(-c3ccccc3)nc2n1` [Example 106, 2-Methyl-2H-pyrazole-3,4-dicarboxylic acid 4-{[2-(2-fluoro-ethoxy)-ethyl]-methyl-amide}3-[(2-phenyl-imidazo[1,2-a]pyrimidin-7-yl)-amide]]: the concentration for half-maximal inhibition (IC50) is 43.3 nM.

Regarding `Cn1ncc(C(=O)NCC2CC2)c1C(=O)Nc1ccn2cc(-c3ccccc3)nc2n1` [Example 58, 2-Methyl-2H-pyrazole-3,4-dicarboxylic acid 4-cyclopropylmethyl-amide 3-[(2-phenyl-imidazo[1,2-a]pyrimidin-7-yl)-amide]], the 50% inhibitory concentration (IC50) amounted to 27.3 nM.

As to `O=C(Nc1ccn2cc(-c3ccccc3)nc2n1)c1cccc(Cl)n1` [Example 21, 6-Chloro-pyridine-2-carboxylic acid (2-phenyl-imidazo[1,2-a]pyrimidin-7-yl)-amide], the IC50 amounted to 314 nM.

For `Cn1ncc(C(=O)N2CC(F)C2)c1C(=O)Nc1ccn2cc(-c3ccccc3)nc2n1` [Example 115, 4-(3-fluoroazetidine-1-carbonyl)-1-methyl-N-(2-phenylimidazo[1,2-a]pyrimidin-7-yl)-1H-pyrazole-5-carboxamide], the IC50 turned out to be 5.1 nM.

On to `Cc1ccc(CNC(=O)c2cnn(C)c2C(=O)Nc2ccn3cc(-c4ccccc4)nc3n2)nc1` [Example 155, 1-methyl-N4-((5-methylpyridin-2-yl)methyl)-N5-(2-phenylimidazo[1,2-a]pyrimidin-7-yl)-1H-pyrazole-4,5-dicarboxamide], for which the IC50 amounted to 346 nM.

With `CC(C)n1nc([N+](=O)[O-])cc1C(=O)Nc1ccn2cc(-c3ccccc3)nc2n1` [Example 16, 2-Isopropyl-5-nitro-2H-pyrazole-3-carboxylic acid (2-phenyl-imidazo[1,2-a]pyrimidin-7-yl)-amide], the IC50 is 82.1 nM.

Regarding `Cn1ncc(C(=O)N2CCC2)c1C(=O)Nc1ccn2cc(-c3cccc(O)c3)nc2n1` [Example 83, 4-(Azetidine-1-carbonyl)-2-methyl-2H-pyrazole-3-carboxylic acid [2-(3-hydroxy-phenyl)-imidazo[1,2-a]pyrimidin-7-yl]-amide], the IC50 was 3.4 nM.

As to `Cn1ncc(C(=O)NCc2ccon2)c1C(=O)Nc1ccn2cc(-c3ccccc3)nc2n1` [Example 146, N4-(isoxazol-3-ylmethyl)-1-methyl-N5-(2-phenylimidazo[1,2-a]pyrimidin-7-yl)-1H-pyrazole-4,5-dicarboxamide], the IC50 was determined as 212 nM.

Consider `CCN(C)C(=O)c1cnn(C)c1C(=O)Nc1ccn2cc(-c3cccc(OCCF)c3)nc2n1` [Example 89, 2-Methyl-2H-pyrazole-3,4-dicarboxylic acid 4-(ethyl-methyl-amide) 3-({2-[3-(2-fluoro-ethoxy)-phenyl]imidazo[1,2-a]pyrimidin-7-yl}-amide)], for which the IC50 is 6.1 nM.

Turning to `Cn1ncc(C(=O)NCC(F)(F)F)c1C(=O)Nc1ccn2cc(-c3ccccc3)nc2n1` [Example 130, 1-methyl-N5-(2-phenylimidazo[1,2-a]pyrimidin-7-yl)-N4-(2,2,2-trifluoroethyl)-1H-pyrazole-4,5-dicarboxamide], the half-maximal inhibitory concentration (IC50) amounted to 34.9 nM.

As for `Cn1ncc(C(=O)NCc2nc(C3CC3)no2)c1C(=O)Nc1ccn2cc(-c3ccccc3)nc2n1` [Example 167, N4-((3-cyclopropyl-1,2,4-oxadiazol-5-yl)methyl)-1-methyl-N5-(2-phenylimidazo[1,2-a]pyrimidin-7-yl)-1H-pyrazole-4,5-dicarboxamide], the IC50 is 825 nM.

Take `COc1cccc(-c2cn3ccc(NC(=O)c4c(C(=O)N(C)CCOCCF)cnn4C)nc3n2)c1` [Example 110]: the IC50 amounted to 222 nM.

For the compound `Cn1ncc(C(=O)NCc2ccc(C#N)nc2)c1C(=O)Nc1ccn2cc(-c3ccccc3)nc2n1` [Example 142, N4-((6-cyanopyridin-3-yl)methyl)-1-methyl-N5-(2-phenylimidazo[1,2-a]pyrimidin-7-yl)-1H-pyrazole-4,5-dicarboxamide], the concentration for half-maximal inhibition (IC50) came out at 152 nM.

Consider `Cn1ncc(C(=O)NCc2nc3ccccc3o2)c1C(=O)Nc1ccn2cc(-c3ccccc3)nc2n1` [Example 170, N4-(benzo[d]oxazol-2-ylmethyl)-1-methyl-N5-(2-phenylimidazo[1,2-a]pyrimidin-7-yl)-1H-pyrazole-4,5-dicarboxamide], for which the half-maximal inhibitory concentration (IC50) amounted to 969 nM.

As for `CN(CCC#N)C(=O)c1cnn(C)c1C(=O)Nc1ccn2cc(-c3ccccc3)nc2n1` [Example 70, 2-Methyl-2H-pyrazole-3,4-dicarboxylic acid 4-[(2-cyano-ethyl)-methyl-amide]3-[(2-phenyl-imidazo[1,2-a]pyrimidin-7-yl)-amide]], the IC50 is 33.2 nM.

As for `Cc1cnc(CNC(=O)c2cnn(C)c2C(=O)Nc2ccn3cc(-c4ccccc4)nc3n2)s1` [Example 124, 1-methyl-N4-((5-methylthiazol-2-yl)methyl)-N5-(2-phenylimidazo[1,2-a]pyrimidin-7-yl)-1H-pyrazole-4,5-dicarboxamide], the IC50 worked out at 17.7 nM.

Regarding `Cn1ncc(C(=O)N2CCC2)c1C(=O)Nc1ccn2cc(-c3cccc(OC(F)(F)F)c3)nc2n1` [Example 61, 4-(Azetidine-1-carbonyl)-2-methyl-2H-pyrazole-3-carboxylic acid [2-(3-trifluoromethoxy-phenyl)-imidazo[1,2-a]pyrimidin-7-yl]-amide], the half-maximal inhibitory concentration (IC50) worked out at 23.5 nM.

As for `Cc1nn(C)c(CNC(=O)c2cnn(C)c2C(=O)Nc2ccn3cc(-c4ccccc4)nc3n2)c1[N+](=O)[O-]` [Example 140, N4-((1,3-dimethyl-4-nitro-1H-pyrazol-5-yl)methyl)-1-methyl-N5-(2-phenylimidazo[1,2-a]pyrimidin-7-yl)-1H-pyrazole-4,5-dicarboxamide], the concentration for half-maximal inhibition (IC50) turned out to be 151 nM.

As to `O=C(Nc1ccn2cc(-c3ccccc3)nc2n1)c1ccnc(Cl)c1` [Example 19, 2-Chloro-N-(2-phenyl-imidazo[1,2-a]pyrimidin-7-yl)-isonicotinamide], the IC50 came out at 553 nM.

In the case of `Cn1ncc(C(=O)NC2(C)COC2)c1C(=O)Nc1ccn2cc(-c3ccccc3)nc2n1` [Example 134, 1-methyl-N4-(3-methyloxetan-3-yl)-N5-(2-phenylimidazo[1,2-a]pyrimidin-7-yl)-1H-pyrazole-4,5-dicarboxamide], the concentration for half-maximal inhibition (IC50) came to 57.6 nM.
